Calls of active or inactive are those of the source. How the calls were made is not given here.

Data on five compounds can be found in PubChem BioAssay AID1259407 (Chemical Carcinogenesis Research Information System (CCRIS), 2018).

For the data set, the system named is CCRIS mutagenicity, Ames/micronucleus/aberration tests. Briefly: CCRIS mutagenicity studies.
Where [1] appears, read: Test System: AMES SALMONELLA TYPHIMURIUM, Strain/Indicator: TA98, Metabolic Activation: NONE, Method: STANDARD PLATE.
Setting [2] is: Test System: AMES SALMONELLA TYPHIMURIUM, Strain/Indicator: TA100, Metabolic Activation: NONE, Method: STANDARD PLATE.
Setting [3] is: Test System: AMES SALMONELLA TYPHIMURIUM, Strain/Indicator: TA98, Metabolic Activation: NONE, Method: PREINCUBATION
The mark [4] stands for this setting: Test System: AMES SALMONELLA TYPHIMURIUM, Strain/Indicator: TA100, Metabolic Activation: NONE, Method: PREINCUBATION

As to `CCCl`, the mutagenic call is, setting by setting: (Test System: AMES SALMONELLA TYPHIMURIUM, Strain/Indicator: TA98, Metabolic Activation: NONE, Method: DESICCATOR) “inactive; negative”; (Test System: AMES SALMONELLA TYPHIMURIUM, Strain/Indicator: TA98, Metabolic Activation: NONE, Method: GAS EXPOSURE) “inactive; negative”; (Test System: AMES SALMONELLA TYPHIMURIUM, Strain/Indicator: TA98, Metabolic Activation: RAT LIVER S-9, PHENOBARBITAL AND BETA-NAPHTHOFLAVONE, Method: GAS EXPOSURE) “inactive; negative”; (Test System: AMES SALMONELLA TYPHIMURIUM, Strain/Indicator: TA98, Metabolic Activation: RAT, LIVER, S-9, AROCLOR 1254 (30%), Method: DESICCATOR) “inactive; negative”; (Test System: AMES SALMONELLA TYPHIMURIUM, Strain/Indicator: TA98, Metabolic Activation: RAT, LIVER, S-9, PHENOBARBITAL AND 5,6-BENZOFLAVONE, Method: GAS EXPOSURE) “inactive; negative”; (Test System: AMES SALMONELLA TYPHIMURIUM, Strain/Indicator: TA100, Metabolic Activation: HAMSTER, LIVER, S-9, AROCLOR 1254 (30%), Method: DESICCATOR) “inactive; negative”. Besides, the mutagenic call was “inactive; negative” (Test System: AMES SALMONELLA TYPHIMURIUM, Strain/Indicator: TA100, Metabolic Activation: NONE, Method: DESICCATOR); “active; positive” (Test System: AMES SALMONELLA TYPHIMURIUM, Strain/Indicator: TA100, Metabolic Activation: NONE, Method: GAS EXPOSURE); “active; positive” (Test System: AMES SALMONELLA TYPHIMURIUM, Strain/Indicator: TA100, Metabolic Activation: RAT LIVER S-9, PHENOBARBITAL AND BETA-NAPHTHOFLAVONE, Method: GAS EXPOSURE); “inactive; negative” (Test System: AMES SALMONELLA TYPHIMURIUM, Strain/Indicator: TA100, Metabolic Activation: RAT, LIVER, S-9, PCB, Method: GAS EXPOSURE); “active; positive” (Test System: AMES SALMONELLA TYPHIMURIUM, Strain/Indicator: TA100, Metabolic Activation: RAT, LIVER, S-9, PHENOBARBITAL AND 5,6-BENZOFLAVONE, Method: GAS EXPOSURE); “active; positive” (Test System: AMES SALMONELLA TYPHIMURIUM, Strain/Indicator: TA1535, Metabolic Activation: HAMSTER, LIVER, S-9, AROCLOR 1254 (30%), Method: DESICCATOR). The mutagenic call (Test System: AMES SALMONELLA TYPHIMURIUM, Strain/Indicator: TA1535, Metabolic Activation: NONE, Method: DESICCATOR) is “active; positive”; the mutagenic call (Test System: AMES SALMONELLA TYPHIMURIUM, Strain/Indicator: TA1535, Metabolic Activation: NONE, Method: GAS EXPOSURE) is “active; positive”; the mutagenic call (Test System: AMES SALMONELLA TYPHIMURIUM, Strain/Indicator: TA1535, Metabolic Activation: RAT LIVER S-9, PHENOBARBITAL AND BETA-NAPHTHOFLAVONE, Method: GAS EXPOSURE) is “active; positive”; the mutagenic call (Test System: AMES SALMONELLA TYPHIMURIUM, Strain/Indicator: TA1535, Metabolic Activation: RAT, LIVER, S-9, AROCLOR 1254 (30%), Method: DESICCATOR) was “active; positive”; the mutagenic call (Test System: AMES SALMONELLA TYPHIMURIUM, Strain/Indicator: TA1535, Metabolic Activation: RAT, LIVER, S-9, PHENOBARBITAL AND 5,6-BENZOFLAVONE, Method: GAS EXPOSURE) was “active; positive”; the mutagenic call (Test System: AMES SALMONELLA TYPHIMURIUM, Strain/Indicator: TA1537, Metabolic Activation: NONE, Method: GAS EXPOSURE) was “inactive; negative”. The mutagenic call runs as follows: (Test System: AMES SALMONELLA TYPHIMURIUM, Strain/Indicator: TA1537, Metabolic Activation: RAT LIVER S-9, PHENOBARBITAL AND BETA-NAPHTHOFLAVONE, Method: GAS EXPOSURE) “inactive; negative”; (Test System: AMES SALMONELLA TYPHIMURIUM, Strain/Indicator: TA1537, Metabolic Activation: RAT, LIVER, S-9, PHENOBARBITAL AND 5,6-BENZOFLAVONE, Method: GAS EXPOSURE) “inactive; negative”; (Test System: CHINESE HAMSTER OVARY, Strain/Indicator: CHO-K1 (HPRT)/6-THIOGUANINE, Metabolic Activation: NONE) “active; positive”; (Test System: CHINESE HAMSTER OVARY, Strain/Indicator: CHO-K1 (HPRT)/6-THIOGUANINE, Metabolic Activation: RAT, LIVER, S-9, AROCLOR 1254) “active; positive”; (Test System: E. COLI, Strain/Indicator: WP2 UVRA (PKM101), Metabolic Activation: RAT, LIVER, S-9, PCB, Method: GAS EXPOSURE) “inactive; negative”; (Test System: E. COLI, Strain/Indicator: WP2 UVRA, Metabolic Activation: NONE, Method: GAS EXPOSURE) “active; positive”. For the same compound, the mutagenic call is, setting by setting: (Test System: E. COLI, Strain/Indicator: WP2 UVRA, Metabolic Activation: RAT, LIVER, S-9, PCB, Method: GAS EXPOSURE) “inactive; negative”; (Test System: E. COLI, Strain/Indicator: WP2 UVRA, Metabolic Activation: RAT, LIVER, S-9, PHENOBARBITAL AND 5,6-BENZOFLAVONE, Method: GAS EXPOSURE) “active; positive”; (Test System: E.COLI, Strain/Indicator: WP2UVRA, Metabolic Activation: NONE, Method: GAS EXPOSURE) “active; positive”; (Test System: E.COLI, Strain/Indicator: WP2UVRA, Metabolic Activation: RAT LIVER S-9, PHENOBARBITAL AND BETA-NAPHTHOFLAVONE, Method: GAS EXPOSURE) “active; positive”; (Test System: UDS MOUSE HEPATOCYTES, Strain/Indicator: THY INCORP, Metabolic Activation: NONE, Method: IN VIVO-IN VITRO) “inactive; negative”.

Take `BrCc1ccc(CBr)cc1`: the mutagenic call is, setting by setting: under setting [1], “inactive; negative”; under setting [2], “inactive; negative”.

As to `CC(O)C(C)[N+](=O)[O-]` (configuration not stated), the mutagenic call is “inactive; negative” under setting [3]; “inactive; negative” (Test System: AMES SALMONELLA TYPHIMURIUM, Strain/Indicator: TA98, Metabolic Activation: RAT, LIVER, S-9, AROCLOR, Method: PREINCUBATION); “inactive; negative” under setting [4]; “inactive; negative” (Test System: AMES SALMONELLA TYPHIMURIUM, Strain/Indicator: TA102, Metabolic Activation: NONE, Method: PREINCUBATION); “inactive; negative” (Test System: AMES SALMONELLA TYPHIMURIUM, Strain/Indicator: TA102, Metabolic Activation: RAT, LIVER, S-9, AROCLOR, Method: PREINCUBATION).

`Cc1c2ccccc2c(C)c2ccccc12`: the mutagenic call is, setting by setting: under setting [1], “active; positive”; (Test System: AMES SALMONELLA TYPHIMURIUM, Strain/Indicator: TA98, Metabolic Activation: RAT, LIVER, S-9, AROCLOR 1254, Method: STANDARD PLATE) “active; positive”; under setting [2], “inactive; negative”; (Test System: AMES SALMONELLA TYPHIMURIUM, Strain/Indicator: TA100, Metabolic Activation: RAT, LIVER, S-9, AROCLOR 1254, Method: STANDARD PLATE) “active; positive”.

Regarding `CCC(O)CN` (configuration not stated), the mutagenic call runs as follows: (Test System: AMES SALMONELLA TYPHIMURIUM, Strain/Indicator: TA97, Metabolic Activation: HAMSTER, LIVER, S-9, AROCLOR 1254 (10 OR 30%), Method: PREINCUBATION) “inactive; negative”; (Test System: AMES SALMONELLA TYPHIMURIUM, Strain/Indicator: TA97, Metabolic Activation: NONE, Method: PREINCUBATION) “inactive; negative”; (Test System: AMES SALMONELLA TYPHIMURIUM, Strain/Indicator: TA97, Metabolic Activation: RAT, LIVER, S-9, AROCLOR 1254 (10 OR 30%), Method: PREINCUBATION) “inactive; negative”; (Test System: AMES SALMONELLA TYPHIMURIUM, Strain/Indicator: TA98, Metabolic Activation: HAMSTER, LIVER, S-9, AROCLOR 1254 (10 OR 30%), Method: PREINCUBATION) “inactive; negative”; under setting [3], “inactive; negative”; (Test System: AMES SALMONELLA TYPHIMURIUM, Strain/Indicator: TA98, Metabolic Activation: RAT, LIVER, S-9, AROCLOR 1254 (10 OR 30%), Method: PREINCUBATION) “inactive; negative”. Further, the mutagenic call (Test System: AMES SALMONELLA TYPHIMURIUM, Strain/Indicator: TA100, Metabolic Activation: HAMSTER, LIVER, S-9, AROCLOR 1254 (10 OR 30%), Method: PREINCUBATION) is “inactive; negative”; the mutagenic call under setting [4] is “inactive; negative”; the mutagenic call (Test System: AMES SALMONELLA TYPHIMURIUM, Strain/Indicator: TA100, Metabolic Activation: RAT, LIVER, S-9, AROCLOR 1254 (10 OR 30%), Method: PREINCUBATION) was “inactive; negative”; the mutagenic call (Test System: AMES SALMONELLA TYPHIMURIUM, Strain/Indicator: TA1535, Metabolic Activation: HAMSTER, LIVER, S-9, AROCLOR 1254 (10 OR 30%), Method: PREINCUBATION) was “inactive; negative”; the mutagenic call (Test System: AMES SALMONELLA TYPHIMURIUM, Strain/Indicator: TA1535, Metabolic Activation: NONE, Method: PREINCUBATION) is “inactive; negative”; the mutagenic call (Test System: AMES SALMONELLA TYPHIMURIUM, Strain/Indicator: TA1535, Metabolic Activation: RAT, LIVER, S-9, AROCLOR 1254 (10 OR 30%), Method: PREINCUBATION) was “inactive; negative”.
